Assay results from patent US20070173462A1, “Treatment of diseases associated with the use of antibiotics” (Optimer Pharmaceuticals, Inc., priority 2004, published 2007).
Values after ≈ are worked out from the molar mass of the structure shown.

How the values were obtained:
C. perfringens = experiment: microbe, parasite or virus in culture; assay type: cell-based
[1] = system: Other anaerobic Gram negative rods; experiment: organism not typed; assay type: cell-based; conditions: clinical gastrointestinal isolates, n=51
Proteus mirabilis = experiment: microbe, parasite or virus in culture; assay type: cell-based; conditions: clinical gastrointestinal isolates, n=10
Pseudomonas aeruginosa = experiment: microbe, parasite or virus in culture; assay type: cell-based; conditions: clinical gastrointestinal isolates, n=10
C. glycolicum = experiment: microbe, parasite or virus in culture; assay type: cell-based; conditions: clinical isolates, n=9
Enterobacter sp. = experiment: microbe, parasite or virus in culture; assay type: cell-based; conditions: Enterobacter; clinical gastrointestinal isolates, n=20
C. bolteae = experiment: microbe, parasite or virus in culture; assay type: cell-based; conditions: clinical isolates, n=6
[2] = system: Bacteroides fragilis group; experiment: microbe, parasite or virus in culture; assay type: cell-based; conditions: clinical gastrointestinal isolates, n=54
[3] = system: Streptococcus milleri group; experiment: microbe, parasite or virus in culture; assay type: cell-based; conditions: clinical gastrointestinal isolates, n=14
Enterococcus sp. = experiment: microbe, parasite or virus in culture; assay type: cell-based; conditions: clinical gastrointestinal isolates, n=22
C. clostridioforme = experiment: organism not typed; assay type: cell-based; conditions: clinical isolates, n=5
Other Clostridium sp. = experiment: microbe, parasite or virus in culture; assay type: cell-based; conditions: clinical isolates, n=11
C. innocuum = experiment: microbe, parasite or virus in culture; assay type: cell-based; conditions: clinical isolates, n=9
C. sordellii = experiment: microbe, parasite or virus in culture; assay type: cell-based; conditions: clinical isolates, n=5
[4] = system: Anaerobic Gram positive cocci; experiment: organism not typed; assay type: cell-based; conditions: clinical gastrointestinal isolates, n=49
Veillonella sp. = experiment: microbe, parasite or virus in culture; assay type: cell-based; conditions: Veillonella; clinical gastrointestinal isolates, n=10
[5] = system: Non-spore forming Gram positive rods; experiment: organism not typed; assay type: cell-based; conditions: clinical gastrointestinal isolates, n=64
Streptococcus sp. = experiment: microbe, parasite or virus in culture; assay type: cell-based; conditions: clinical gastrointestinal isolates, n=9
C. difficile = experiment: microbe, parasite or virus in culture; assay type: cell-based; conditions: clinical isolates, n=23
C. ramosum = experiment: microbe, parasite or virus in culture; assay type: cell-based; conditions: clinical isolates, n=10
C. paraputrificum = experiment: microbe, parasite or virus in culture; assay type: cell-based; conditions: clinical isolates, n=10
Eschericia coli = experiment: organism not typed; assay type: cell-based; conditions: clinical gastrointestinal isolates, n=10
Clostridium difficile = experiment: MIC, 207 clinical isolates of C. difficile; assay type: cell-based; conditions: clinical isolates, n=207
Excerpt: Compound I was additionally tested against anaerobic clinical isolates and against aerobic bacteria. […] The compound was also active against clinical strains of Staphylococcus sp. and Enterococcus sp.

toxigenic C. difficile = experiment: Hamster model of clindamycin-induced Clostridium difficile associated diarrhea/colitis; assay type: in vivo, Syrian hamsters; conditions: oral treatment for 7 days; untreated infection uniformly fatal between days two and six
Protocol: Animals were treated with two oral doses of clindamycin at 100 mg/kg. Three days after the second dose of clindamycin, they were inoculated with toxigenic C. difficile spores. […] Animals were observed daily for the presence or absence of diarrhea. Necropsies were performed on some animals that died during the experiment, and cecal contents were assayed for C. difficile toxin A. Hamsters were monitored for 20 days, and the cumulative mortality during this period was recorded (FIG. 1).

Stephylococcus sp. = experiment: organism not typed; assay type: cell-based; conditions: clinical gastrointestinal isolates, n=19
Klebsiella sp. = experiment: microbe, parasite or virus in culture; assay type: cell-based; conditions: clinical gastrointestinal isolates, n=10

CN[C@H](CC(C)C)C(=O)N[C@H]1C(=O)N[C@@H](CC(N)=O)C(=O)N[C@H]2C(=O)N[C@H]3C(=O)N[C@H](C(=O)N[C@H](C(=O)O)c4cc(O)cc(O)c4-c4cc3ccc4O)[C@H](O)c3ccc(c(Cl)c3)Oc3cc2cc(c3O[C@@H]2O[C@H](CO)[C@@H](O)[C@H](O)[C@H]2O[C@H]2C[C@](C)(N)[C@H](O)[C@H](C)O2)Oc2ccc(cc2Cl)[C@H]1O [Vancomycin]
Range (MIC) (C. perfringens): 0.5-1^ μg/mL
MIC50 (C. perfringens; Clostridium perfringens): 1 µg/mL (≈ 0.69 µM)
MIC90 (C. perfringens; Clostridium perfringens): 1 µg/mL (≈ 0.69 µM)
MIC50 [1]: 512 µg/mL (≈ 353 µM)
MIC90 [1]: > 1020 µg/mL
MIC50 (Proteus mirabilis; Proteus mirabilis): > 1020 µg/mL
MIC90 (Proteus mirabilis; Proteus mirabilis): > 1020 µg/mL
Range (MIC) (Proteus mirabilis): >1024 µg/mL
MIC50 (Pseudomonas aeruginosa): > 1020 µg/mL
MIC90 (Pseudomonas aeruginosa): > 1020 µg/mL
MIC50 (C. glycolicum; Terrisporobacter glycolicus): 1 µg/mL (≈ 0.69 µM)
MIC90 (C. glycolicum; Terrisporobacter glycolicus): 1 µg/mL (≈ 0.69 µM)
Range (MIC) (C. glycolicum): 0.5-1^ μg/mL
MIC50 (Enterobacter sp.): > 1020 µg/mL
MIC90 (Enterobacter sp.): > 1020 µg/mL
MIC50 (C. bolteae; Enterocloster bolteae): 16 µg/mL (≈ 11 µM)
MIC90 (C. bolteae; Enterocloster bolteae): 16 µg/mL (≈ 11 µM)
Range (MIC) (C. bolteae): 1 to 16 µg/mL
MIC50 ([2]; Bacteroides fragilis): 64 µg/mL (≈ 44.2 µM)
MIC90 ([2]; Bacteroides fragilis): 128 µg/mL (≈ 88.3 µM)
Range (MIC) [2]: 16 to 256 µg/mL
MIC50 ([3]; Streptococcus milleri): 1 µg/mL (≈ 0.69 µM)
MIC90 ([3]; Streptococcus milleri): 1 µg/mL (≈ 0.69 µM)
Range (MIC) [3]: 1 µg/mL
MIC50 (Enterococcus sp.; Enterococcus): 1 µg/mL (≈ 0.69 µM)
MIC90 (Enterococcus sp.; Enterococcus): 4 µg/mL (≈ 2.76 µM)
Range (MIC) (Enterococcus sp.): 0.5-4 ^ μg/mL
MIC50 (C. clostridioforme): 1 µg/mL (≈ 0.69 µM)
MIC90 (C. clostridioforme): 8 µg/mL (≈ 5.52 µM)
Range (MIC) (C. clostridioforme): 1 to 8 µg/mL
MIC50 (Other Clostridium sp.; Clostridium): 1 µg/mL (≈ 0.69 µM)
MIC90 (Other Clostridium sp.; Clostridium): 16 µg/mL (≈ 11 µM)
Range (MIC) (Other Clostridium sp.): 1 to 64 µg/mL
MIC50 (C. innocuum; [Clostridium] innocuum): 16 µg/mL (≈ 11 µM)
MIC90 (C. innocuum; [Clostridium] innocuum): 16 µg/mL (≈ 11 µM)
Range (MIC) (C. innocuum): 8 to 16 µg/mL
MIC50 (C. sordellii; Paraclostridium sordellii): 1 µg/mL (≈ 0.69 µM)
MIC90 (C. sordellii; Paraclostridium sordellii): 1 µg/mL (≈ 0.69 µM)
Range (MIC) (C. sordellii): 1 µg/mL
MIC50 [4]: 1 µg/mL (≈ 0.69 µM)
MIC90 [4]: 8 µg/mL (≈ 5.52 µM)
MIC50 (Veillonella sp.): 512 µg/mL (≈ 353 µM)
MIC90 (Veillonella sp.): 512 µg/mL (≈ 353 µM)
MIC50 [5]: 128 µg/mL (≈ 88.3 µM)
MIC90 [5]: > 1020 µg/mL
MIC50 (Streptococcus sp.; Streptococcus): 0.5 µg/mL (≈ 0.345 µM)
MIC90 (Streptococcus sp.; Streptococcus): 1 µg/mL (≈ 0.69 µM)
Range (MIC) (Streptococcus sp.): 0.5 to 1 µg/mL
MIC50 (C. difficile; Clostridioides difficile): 1 µg/mL (≈ 0.69 µM)
MIC90 (C. difficile; Clostridioides difficile): 2 µg/mL (≈ 1.38 µM)
Range (MIC) (C. difficile): 0.5-4^ μg/mL
MIC50 (C. ramosum; Thomasclavelia ramosa): 4 µg/mL (≈ 2.76 µM)
MIC90 (C. ramosum; Thomasclavelia ramosa): 8 µg/mL (≈ 5.52 µM)
Range (MIC) (C. ramosum): 4 to 8 µg/mL
MIC50 (C. paraputrificum; Clostridium paraputrificum): 2 µg/mL (≈ 1.38 µM)
MIC90 (C. paraputrificum; Clostridium paraputrificum): 2 µg/mL (≈ 1.38 µM)
Range (MIC) (C. paraputrificum): 1 to 2 µg/mL
MIC50 (Eschericia coli): 512 µg/mL (≈ 353 µM)
MIC90 (Eschericia coli): > 1020 µg/mL
MIC90 (Clostridium difficile; Clostridioides difficile): 0.5 µg/mL (≈ 0.345 µM)
MIC50 (Clostridium difficile; Clostridioides difficile, read-out: MIC50): 0.5 µg/mL (≈ 0.345 µM)
Range (MIC) (Clostridium difficile): 0.0156-0.5
protection from infection (cumulative mortality over 20 days) (toxigenic C. difficile): protected the animals from infection
MIC50 (Stephylococcus sp.): 2 µg/mL (≈ 1.38 µM)
MIC90 (Stephylococcus sp.): 4 µg/mL (≈ 2.76 µM)
Range (MIC) (Stephylococcus sp.): 1 to 4 µg/mL
MIC50 (Klebsiella sp.; Klebsiella): > 1020 µg/mL
MIC90 (Klebsiella sp.; Klebsiella): > 1020 µg/mL
Range (MIC) (Klebsiella sp.): >1024 µg/mL
